Assays:
HSC-3 cells [1] = assay: Internalization studies in HSC-3 monolayers (4 °C vs 37 °C, endocytosis inhibitors), flow cytometry; format: cell-based, human; conditions: for reduction of cellular uptake of IRDye-A20 by endocytosis inhibitor: HSC-3 cells pre-incubated 30 min with Genistein 400 µM, Chlorpromazin or EIPA 100 µM, then IRDye-A20 500 nM for 3 h, n = 3–4
H10 HSC-3 spheroids = assay: Accumulation in homotypic H10 (HSC-3) spheroids, flow cytometry; format: cell-based, human
MRC-5 cells = conditions: 24 h, 0.1–4 µM, serum-free medium, highest concentration 4 µM, p > 0.05
Procedure: (§1) Cells were seeded into 96-well plates (100 µL, 4.10^4 cells/mL) for 5 days, then culture medium was replaced with 0.1–4 µM of IRDye-conjugates diluted in serum-free medium for 24 h at 37 °C. Afterwards, cells were washed, fixed with 70% ethanol for 10 min and further incubated with 0.2% crystal violet in 20% ethanol for 15 min. After several washes, crystal violet was solubilized using 0.1% acetic acid and 50% ethanol and optical density was recorded at 540 nm with Multiskan microplate readers (Ascent, Labsystems). Cell viability was calculated by normalizing to that of the control condition.

HSC-3 cells [2] = conditions: 24 h, 0.1–4 µM, serum-free medium, highest concentration 4 µM, p > 0.05
Procedure: as §1

## CCN(c1nc(N)c(C(=O)N=C(N)N)nc1Cl)C(C)C [EIPA, (5-(N-Ethyl-N-isopropyl)-Amiloride)]
HSC-3 cells [1]
  reduction of cellular uptake of IRDye-A20 by endocytosis inhibitor: not affected

## CN(C)CCCN1c2ccccc2Sc2ccc(Cl)cc21 [chlorpromazine, Chlorpromazin]
HSC-3 cells [1]
  reduction of cellular uptake of IRDye-A20 by endocytosis inhibitor: not affected

## O=c1c(-c2ccc(O)cc2)coc2cc(O)cc(O)c12 [genistein, Genistein]
HSC-3 cells [1]
  reduction of cellular uptake of IRDye-A20 by endocytosis inhibitor: 30%

## CGGGSGGGSLRDQTGLKNPVQLARVAV [IRDye-Scr]
HSC-3 cells [1]; HSC-3 monolayers, 3 h, 1-500 nM, n = 4
  inhibition of internalization at 4 °C versus 37 °C: significant inhibition of internalization at 4 °C was observed only at the highest concentrations
H10 HSC-3 spheroids; 100 nM, 24 h
  MFI, fold less compared to IRDye-A20: 20 fold
H10 HSC-3 spheroids; 3 h, maximum over 1-250 nM, n = 4–5
  percentage of labeled cells: 3%
H10 HSC-3 spheroids; 6 h, maximum over 1-250 nM, n = 4–5
  percentage of labeled cells: 7%
H10 HSC-3 spheroids; 24 h, 50 nM
  percentage of labeled cells: ≤ 3%
H10 HSC-3 spheroids; 24 h, 100 nM
  percentage of labeled cells: 11%
H10 HSC-3 spheroids; 24 h, 250 nM
  percentage of labeled cells: 45%
MRC-5 cells
  loss of viability (crystal violet): Loss of viability was not detected
HSC-3 cells [2]
  loss of viability (crystal violet): Loss of viability was not detected
